Experimental data reported in patent US20250154165A1, “MULTIANTENNARY GLYCOLIPID MIMETICS” (CONSEJO SUPERIOR DE INVESTIGACIONES CIENTÍFICAS (CSIC), priority 2021, published 2025).

Columns and labels:
[1] = test system: Splenocytes treated with LPS; assay: Suppression of LPS-induced inflammation (splenocytes in vitro); type: cell-based, mouse; details: splenocytes treated concurrently with compound and LPS (FIG. 1)
Method: FIG. 1. […] Splenocytes were treated concurrently with the compounds of the invention and LPS to assess the suppressive function of compounds on LPS-induced inflammation, with several compounds showing prominent suppressive function.
(§1) The whole spleen was surgically removed from a mouse and mechanically dissociated into a single cell suspension of splenocytes, which were then cultured in the complete RPMI 1640 medium (cRPMI). Human peripheral blood mononuclear cells (PBMCs) from healthy volunteers were collected from whole blood through gradient-centrifugation with Histopaque-1077 (Sigma-Aldrich).
Splenocytes were treated concurrently with the compounds of the invention and LPS to assess the suppressive function of compounds on LPS-induced inflammation.

[2] = test system: glycosidases of human fibroblast lysates; assay: Stability of the glycosidic linkage to glycosidases upon incubation with human fibroblast lysates; type: in vitro ADME; details: 4 h, 37° C., compound solution 200 μM, 0.1 M citrate buffer pH 4.5
Method: The stability of the glyosidic linkage in compounds 2, 4, 6, 8, 10, 12, 14, 16, 18, 20, 22, 23, 25, 27 and 29, selected as representative examples, upon incubation with human fibroblast lysates for 4 h was checked. For such purpose, cells were scraped into ice-cold H2O (10^6 cells mL^−1) and lysed by sonication. Insoluble materials were removed by centrifugation at 15,000 rpm for 5 min and protein concentrations were determined with Protein Assay Rapid Kit (WAKO, Tokyo, Japan). 10 μL of the lysates in 0.1% Triton X-100 in distilled water were incubated at 37° C. with 20 μL of the compound solution (200 μM) in 0.1 M citrate buffer, pH 4.5. In control experiments, the activity of several lysosomas glycosidases was confirmed using fluorescent substrates. The substrates were 4-methylumbelliferone (4-MU)-conjugated β-D-glucopyranoside (for GCase), α-D-glucopyranoside (for α-glucosidase), α-D-galactopyranoside (for α-Galase) and β-D-galactopyranoside (for β-galactosidase). The liberated 4-methylumbelliferone was measured in the black-well plate with a Perkin Elmer Luminescence Spectrometer (excitation wavelength: 340 nm; emission: 460 nm).

Splenocytes = assay: Immune-stimulating function of compounds alone (splenocytes in vitro); type: cell-based, mouse; details: for Th1/Th2 bias: concluded from IFNγ and IL-4 secretion of splenocytes (FIG. 6); for IFNγ secretion / IL-4 secretion: splenocytes treated with compound alone (FIG. 6)
Method: FIG. 6. […] Splenocytes were treated with the compounds of the invention alone to assess the immune-stimulating function of the compounds. Compounds 12, 18, 22, 27, and 29 induced significant IFNγ secretion, and compound 8 induced significant IL-4 secretion.
as §1
Splenocytes were treated with the compounds of the invention alone to assess the immune-stimulating function of the compounds by measuring their ability to promote the secretions of IFN-γ and IL-4.

B6 mice = assay: Adjuvancy function in vivo (serum IFNγ and IL-4 after injection)
Method: FIG. 11. […] The adjuvancy capability of the selected compounds 8, 12, 18, 27, and 29 in vivo was assessed by measuring the serum level of IFNγ and IL-4 induced after injecting them into B6 mice.
Besides assessing the ability of the new compounds to suppress inflammation, we also looked into their function to act as adjuvants, i.e. their ability to promote desirable immunological trends in the development of vaccines. We measured the in vivo adjuvancy capability of selected compounds 8, 12, 18, 27, and 29 in inducing IFNγ and IL-4 in B6 mice (FIG. 11).

[3] = test system: OVA-induced AHR mouse model; assay: Suppression of OVA-induced airway hyperreactivity (AHR) in vivo; details: OVA-induced AHR mouse model (FIG. 7)
Method: FIG. 7. […] The capability of selected compounds 8, 12, 18, and 27 in suppressing Th2 inflammation in vivo was assessed using the OAV-induced AHR mouse model.
(§2) For ovalbumin (OVA) challenge, mice were sensitized intraperitoneally (i.p.) with 50 μg of OVA with 2% alhydrogel adjuvant (InvivoGen). Mice were challenged three times with 50 μg of OVA on day 7 post-sensitization, either daily or every other day. Mice were sacrificed the day after the last OVA challenge. The scheme of the OT-1 adoptive transfer mouse model for examining the proliferation of CD8^+ T cells in adjuvanting OVA challenge is described in FIG. 13.
Mice were anesthetized with 100 mg per kg body weight pentobarbital (Sigma-Aldrich), tracheotomised and mechanically ventilated via the FinePointe RC system (Buxco Research Systems, Wilmington, NC). Lung function was assessed by measuring lung resistance and dynamic compliance in response to increasing doses of aerosolized methacholine (1.25-40 mg/mL, Sigma-Aldrich).
(§3) Using the Th2 OVA-induced AHR mouse model, we assessed the capability of selected compounds 8, 12, 18, and 27 in suppressing Th2 inflammation.

[4] = test system: OVA-induced AHR mouse model; assay: Suppression of OVA-induced airway inflammation in vivo (IL-13 and IL-4 in BALF and lungs); details: OVA-induced AHR experiment; for IL-4 protein level in lungs / IL-13 protein level in lungs: lung protein (FIG. 9); for IL-4 level in BALF / IL-13 level in BALF: bronchoalveolar lavage fluid (FIG. 8)
Method: FIG. 8. […] The bronchoalveolar lavage fluid (BALF) from mice in the OAV-induced AHR experiment was examined forth IL-13 and IL-4 levels.
FIG. 9. […] The lungs from mice in the OAV-induced AHR experiment was examined for their IL-13 and IL-4 protein level.
FIG. 10. […] The lungs from mice in the OAV-induced AHR experiment was examined for their IL-13 and IL-4 mRNA levels.
as §2
Upon exposure of the trachea, the lungs were lavaged twice with 1 mL of PBS supplemented with 2% fetal calf serum (FCS). BALF was pooled and bronchoalveolar (BAL) cells were pelleted by centrifugation and fixed onto cytospin slides. The slides were stained with Diff-Quik solution (Polysciences Inc) and BAL differential cell count was performed.
as §3

[5] = test system: Splenocytes treated with αGalCer; assay: Suppression of αGalCer-induced inflammation (splenocytes in vitro); type: cell-based, mouse; details: splenocytes treated concurrently with compound and αGalCer (FIG. 5)
Method: FIG. 5. […] Splenocytes were treated concurrently with the compounds of the invention and αGalCer to assess the suppressive function of compounds on αGalCer-induced inflammation, with several compounds showing prominent suppressive function.
as §1
Splenocytes were treated concurrently with the compounds of the invention and αGalCer to assess their ability to suppress αGalCer-induced inflammation.

[6] = test system: bone marrow-derived macrophages (BMDM) treated with LPS; assay: Suppression of LPS-induced inflammation in bone marrow-derived macrophages (BMDM in vitro); type: cell-based; details: LPS-induced, BMDM (FIG. 2)
Description: Since macrophage is the major responder to LPS-induced inflammation, we assessed the capability of selected compounds to suppress LPS-induced inflammation in bone marrow-derived macrophages (BMDM).

[7] = 2 hours after injection (FIG. 11)
[8] = 18 hours after injection (FIG. 11)

CCCCCCCCCCCCCCC(O)C(O)C(COC1C(O)C(O)C(O)C2COC(=O)N21)n1cc(CCCCCCCCCCCC)nn1 (centres unmarked) [Compound 10]
suppressive function on LPS-induced inflammation [1]: prominent inflammation-suppressing function
hydrolysis of the glycolipid mimetic (free polysubstituted 2-oxa-3-oxoindolizidine detected by gas chromatography) [2]: No traces of the free polysubstituted 2-oxa-3-oxoindolizidine

CCCCCCCCCCCCNC(=O)[C@H](CO[C@@H]1C(O)[C@@H](O)[C@H](O)C2COC(=O)N21)NC(=S)NCCCCCCCC (some centres unmarked) [Compound 14]
suppressive function on LPS-induced inflammation [1]: prominent inflammation-suppressing function

CCCCCCCCCCCCNC(=O)[C@H](CS[C@@H]1C(O)[C@@H](O)[C@@H](O)C2COC(=O)N21)NC(=O)CCCCCCCCCCC (some centres unmarked) [Compound 29]
Th1/Th2 bias (Splenocytes): Th1-biased
IFNγ secretion (Splenocytes): effective in promoting the productions of IFNγ
IL-4 secretion (Splenocytes): not IL-4
serum level of IFNγ induced (B6 mice; [7]): significant capability in inducing
serum level of IL-4 induced (B6 mice; [7]): significant capability in inducing
serum level of IFNγ induced (B6 mice; [8]): significant detectable level
serum level of IL-4 induced (B6 mice; [8]): significant detectable level

CCCCCCCCCCCCCC(=O)N[C@@H](CS[C@@H]1C(O)[C@@H](O)[C@H](O)C2COC(=O)N21)C(=O)NCCCCCCCCCCCC (some centres unmarked) [Compound 22]
Th1/Th2 bias (Splenocytes): Th1-biased
IFNγ secretion (Splenocytes): effective in promoting the productions of IFNγ
IL-4 secretion (Splenocytes): not IL-4

CCCCCCCCCCCCCC[C@@H](O)[C@@H](O)[C@H](CO[C@@H]1C(O)[C@@H](O)[C@@H](O)C2COC(=O)N21)n1cc(CCCCCCCC)nn1 (some centres unmarked) [Compound 8]
suppressive function on LPS-induced inflammation [1]: prominent inflammation-suppressing function
suppression of airway hyperreactivity (AHR) [3]: can suppress AHR onset
Th1/Th2 bias (Splenocytes): Th2-biased
IFNγ secretion (Splenocytes): not IFNγ
IL-4 secretion (Splenocytes): proficient at inducing IL-4 secretion
serum level of IFNγ induced (B6 mice; [7]): significant capability in inducing
serum level of IL-4 induced (B6 mice; [7]): significant capability in inducing
serum level of IFNγ induced (B6 mice; [8]): significant detectable level
serum level of IL-4 induced (B6 mice; [8]): significant detectable level
IL-4 protein level in lungs [4]: only showed significant suppression on IL-13
IL-13 protein level in lungs [4]: significant suppression

CCCCCCCCCCCCNC(=O)[C@H](CS[C@@H]1C(O)[C@@H](OCc2ccccc2)[C@H](O)C2COC(=O)N21)NC(=O)CCCCCCCCCCC (some centres unmarked) [Compound 20]
suppressive function on LPS-induced inflammation [1]: prominent inflammation-suppressing function

CCCCCCCCCCCCNC(=O)[C@H](CS[C@@H]1C(O)[C@@H](O)[C@H](O)C2COC(=O)N21)NC(=O)CCCCCCCCCCC (some centres unmarked) [Compound 18]
suppressive function on LPS-induced inflammation [1]: prominent inflammation-suppressing function
suppression of airway hyperreactivity (AHR) [3]: can suppress AHR onset
Th1/Th2 bias (Splenocytes): Th1-biased
IFNγ secretion (Splenocytes): effective in promoting the productions of IFNγ
IL-4 secretion (Splenocytes): not IL-4
serum level of IFNγ induced (B6 mice; [7]): significant serum IFNγ level
serum level of IL-4 induced (B6 mice; [7]): only showed significant serum IFNγ level
serum level of IFNγ induced (B6 mice; [8]): significant serum IFNγ level
serum level of IL-4 induced (B6 mice; [8]): only showed significant serum IFNγ level
IL-4 level in BALF [4]: significant suppression
IL-13 level in BALF [4]: only showed significant suppression on IL-4
IL-4 protein level in lungs [4]: only showed significant suppression on IL-13
IL-13 protein level in lungs [4]: significant suppression

CCCCCCCCCCCCCCCCCCCCCCCCCC(=O)N[C@@H](CO[C@@H]1C(O)[C@@H](O)[C@@H](O)C2COC(=O)N21)[C@H](O)[C@H](O)CCCCCCCCCCCCCC (some centres unmarked) [Compound 6]
suppressive function on αGalCer-induced inflammation [5]: prominent inflammation-suppressing function

CCCCCCCCCCCCCCCCCCCCCCCCCC(=O)N[C@@H](CO[C@@H]1C(O)[C@@H](O)[C@H](O)C2COC(=O)N21)[C@H](O)[C@H](O)CCCCCCCCCCCCCC (some centres unmarked) [Compound 2]
suppressive function on αGalCer-induced inflammation [5]: prominent inflammation-suppressing function

CCCCCCCCCCCCNC(=O)[C@H](CO[C@@H]1C(O)[C@@H](O)[C@@H](O)C2COC(=O)N21)NC(=O)CCCCCCCCCCC (some centres unmarked) [Compound 27]
suppression of IL-6 [6]: significant suppression
suppression of TNFα [6]: significant suppression
Th1/Th2 bias (Splenocytes): Th1-biased
IFNγ secretion (Splenocytes): effective in promoting the productions of IFNγ
IL-4 secretion (Splenocytes): not IL-4
serum level of IFNγ induced (B6 mice; [7]): significant capability in inducing
serum level of IL-4 induced (B6 mice; [7]): significant capability in inducing
serum level of IFNγ induced (B6 mice; [8]): significant detectable level
serum level of IL-4 induced (B6 mice; [8]): significant detectable level
IL-4 level in BALF [4]: only showed significant suppression on IL-13
IL-13 level in BALF [4]: significant suppression
IL-4 protein level in lungs [4]: only showed significant suppression on IL-13
IL-13 protein level in lungs [4]: significant suppression
